Converted amounts (≈) assume the structure as drawn. Counter-ions that a name gives are not always drawn. Like-named read-outs stand apart in the source and are kept apart here.
Columns and labels:
S. aureus 2552 = experiment: Test D cross resistance antibacterial assay (MIC); type: cell-based; conditions: for MIC: Staphylococcus aureus, 2552, upregulated norA pump, read-out: Minimum Inhibitory Concentrations S. aureus 2552; for MIC fold increase S. aureus 2552 (in parentheses): relative to MIC against S. aureus UC-76
Experimental: (§1) Test D-Cross Resistance Antibacterial Assay
(§2) The compounds of the present invention were tested against an assortment of ciprofloxacin resistant E. coli and S. aureus organisms described below using standard microtitration techniques (Cohen, et al., Antimicrob. Agents Chemother., 1985;28:766; Heifetz, et al., Antimicrob. Agents Chemother., 1974;6:124). […].

S. aureus 2554 = experiment: Test D cross resistance antibacterial assay (MIC); type: cell-based; conditions: relative to MIC against S. aureus UC-76
Experimental: as §1, §2
S. aureus 2554: Isogenic to S. aureus 2552, with point mutation at position 80 of grlA subunit.

N. gonorrhoeae 2693 = experiment: Test D cross resistance antibacterial assay (MIC); type: cell-based, Neisseria gonorrhoeae; conditions: relative to MIC against N. g. 2637
Experimental: as §1, §2
N. gonorrhoeae 2693 (N.g. 2693): Isogenic to N. gonorrhoeae 2709 containing parC QRDR mutations [P88S and E91K].

E. coli B90 = experiment: Test A antibacterial assay, standard microtitration (MIC); type: cell-based; conditions: Escherichia coli
Experimental: (§3) Test A-Antibacterial Assay
(§4) The compounds of the present invention were tested against an assortment of Gram-negative and Gram-positive organisms using standard microtitration techniques (Cohen, et al., Antimicrob. Agents Chemother., 1985;28:766; Heifetz, et al., Antimicrob. Agents Chemother:, 1974;6:124). […]

S. aureus 29213 = experiment: as above; type: cell-based
Experimental: as §3, §4

S. pyogenes C203 = experiment: as above; type: cell-based; conditions: Streptococcus pyogenes
Experimental: as §3, §4

E. coli MC 4100 = experiment: as above; type: cell-based; conditions: Escherichia coli
Experimental: as §3, §4

E. coli Tol C = experiment: as above; type: cell-based; conditions: Escherichia coli, read-out: Minimum Inhibitory Concentrations E. coli Tol C
Experimental: as §3, §4

E. faecalis RB1 = experiment: as above; type: cell-based; conditions: Enterococcus faecalis
Experimental: as §3, §4

S. aureus 2558 = experiment: Test D cross resistance antibacterial assay (MIC); type: cell-based; conditions: relative to MIC against S. aureus UC-76
Experimental: as §1, §2
S. aureus 2558: Isogenic to S. aureus 2554, with point mutation at position 84 of gyrA subunit.

S. pyogenes = experiment: Test C in vivo activity, median protective dose in mice given lethal systemic infections; conditions: PO, lethal systemic infection with S. pyogenes
N. gonorrhoeae 2637 = experiment: Test D cross resistance antibacterial assay (MIC); type: cell-based, Neisseria gonorrhoeae; conditions: Neisseria gonorrhoeae, 2637; parent strain, derivative of MS11; read-out: Minimum Inhibitory Concentrations N. g. 2637
Experimental: as §1, §2
N. gonorrhoeae 2637 (N.g. 2637) is a derivative of Neisseria gonorrhoeae MS11 containing a TAC-LAC recA to allow for control of homologous recombination [Tonjum T. et al. Molecular Microbiology 1995, 16, 451-64].

S. aureus UC-76 = experiment: Test D cross resistance antibacterial assay (MIC); type: cell-based; conditions: Staphylococcus aureus, UC76; wild type sensitive laboratory strain; read-out: Minimum Inhibitory Concentrations S. aureus UC-76
Experimental: as §1, §2
S. aureus UC-76: Typical sensitive laboratory strain (Wild type).

N. gonorrhoeae 2709 = experiment: Test D cross resistance antibacterial assay (MIC); type: cell-based, Neisseria gonorrhoeae; conditions: for MIC: Neisseria gonorrhoeae, 2709, read-out: Minimum Inhibitory Concentrations N. g. 2709; for MIC fold increase N. g. 2709 (in parentheses): relative to MIC against N. g. 2637
Experimental: as §1, §2
N. gonorrhoeae 2709 (N.g. 2709): Isogenic to N. gonorrhoeae 2637 contains gyrA quinolone-resistant determining region (QRDR) mutations (S91F D95G).

E. coli gyrase = E. coli gyrase (Escherichia coli, UniProt P0AES4+P0AES6); experiment: biochemical; conditions: supercoiling of relaxed pBR322, 30 minutes at 37° C.
[1] = Gram negative, E. coli B90, read-out: Minimum Inhibitory Concentrations E. coli B90
[2] = Gram positive, S. pyogenes C203, read-out: Minimum Inhibitory Concentrations S. pyogenes C203
[3] = MC4100, Gram negative, E. coli MC 4100, read-out: Minimum Inhibitory Concentrations E. coli MC 4100
[4] = Gram positive, E. faecalis RB1, read-out: Minimum Inhibitory Concentrations E. faecalis RB1

Sequence of E. coli gyrase (P0AES4 whole entry, one chain of several): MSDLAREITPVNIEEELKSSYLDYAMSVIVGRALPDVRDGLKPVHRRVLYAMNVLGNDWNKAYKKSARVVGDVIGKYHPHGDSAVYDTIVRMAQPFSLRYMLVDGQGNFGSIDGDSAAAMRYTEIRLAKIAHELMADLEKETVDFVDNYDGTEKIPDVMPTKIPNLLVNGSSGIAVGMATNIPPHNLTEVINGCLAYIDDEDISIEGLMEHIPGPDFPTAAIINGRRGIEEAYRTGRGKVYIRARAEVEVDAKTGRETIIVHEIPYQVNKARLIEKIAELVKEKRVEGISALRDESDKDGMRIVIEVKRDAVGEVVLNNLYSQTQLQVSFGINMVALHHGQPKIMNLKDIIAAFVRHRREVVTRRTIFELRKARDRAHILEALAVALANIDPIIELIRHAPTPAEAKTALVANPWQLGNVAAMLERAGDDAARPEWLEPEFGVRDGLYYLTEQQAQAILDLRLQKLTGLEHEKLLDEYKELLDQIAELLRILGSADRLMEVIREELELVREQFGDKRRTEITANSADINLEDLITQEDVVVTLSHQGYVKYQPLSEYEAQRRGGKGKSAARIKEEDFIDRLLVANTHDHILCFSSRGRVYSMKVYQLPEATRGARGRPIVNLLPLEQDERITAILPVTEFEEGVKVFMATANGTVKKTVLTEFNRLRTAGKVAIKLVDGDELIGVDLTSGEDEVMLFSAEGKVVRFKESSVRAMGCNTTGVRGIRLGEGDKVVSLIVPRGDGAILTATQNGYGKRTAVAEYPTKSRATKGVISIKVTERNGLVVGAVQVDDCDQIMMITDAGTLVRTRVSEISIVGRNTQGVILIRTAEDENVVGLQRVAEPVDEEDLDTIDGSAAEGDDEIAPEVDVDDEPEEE

For CN[C@@H](C)[C@@H]1CCN(c2c(F)cc3c(=O)[nH]c(=O)n(C4CC4)c3c2C)C1 [Example 2, 1-Cyclopropyl-6-fluoro-8-methyl-7-[(R)-3-((S)-1-methylaminoethyl)pyrrolidin-1-yl]-1H-quinazolinedione], the MIC (S. aureus 2552) was 0.5 µg/mL (≈ 1.39 µM), the “MIC fold increase S. aureus 2552 (in parentheses)” value (S. aureus 2552) was “(2x)” and the “MIC fold increase S. aureus 2554 (in parentheses)” value (S. aureus 2554) was “(2x)”. The “MIC fold increase N. g. 2693 (in parentheses)” value (N. gonorrhoeae 2693) was “(16x)”, the MIC (E. coli B90; [1]) was 0.5 µg/mL (≈ 1.39 µM) and the MIC (S. aureus 29213; Staphylococcus aureus, Gram positive, S. aureus 29213, read-out: Minimum Inhibitory Concentrations S. aureus 29213) was 0.5 µg/mL (≈ 1.39 µM). For the same compound, the MIC (S. pyogenes C203; [2]) was 0.03 µg/mL (≈ 0.0832 µM), the MIC (E. coli MC 4100; [3]) was 8 µg/mL (≈ 22.2 µM) and the MIC (E. coli Tol C) was 0.25 µg/mL (≈ 0.694 µM). The MIC (E. faecalis RB1; [4]) was 0.25 µg/mL (≈ 0.694 µM), the “MIC fold increase S. aureus 2558 (in parentheses)” value (S. aureus 2558) was “(4x)” and the PD50 (S. pyogenes) was 10.8 mg/kg. For the same compound, the MIC (N. gonorrhoeae 2637) was 0.5 µg/mL, the MIC (S. aureus UC-76) was 0.25 µg/mL (≈ 0.694 µM) and the MIC (N. gonorrhoeae 2709) was 4 µg/mL (≈ 11.1 µM). For the same compound, the “MIC fold increase N. g. 2709 (in parentheses)” value (N. gonorrhoeae 2709) was “(8x)” and the IC50 (E. coli gyrase) was 2100 nM.

In the case of CN[C@@H](C)[C@@H]1CCN(c2c(F)cc3c(=O)[nH]c(=O)n(C4CC4)c3c2OC)C1 [Example 3, 1-Cyclopropyl-6-fluoro-8-methoxy-7-[(R)-3-((S)-1-methylaminoethyl)pyrrolidin-1-yl]-1H-quinazolinedione], the melting point is reported as 162 to 164 °C, the MIC (E. coli B90; [1]) is reported as 2 µg/mL (≈ 5.31 µM) and the MIC (S. pyogenes C203; [2]) is reported as 0.13 µg/mL (≈ 0.345 µM). It also gave an MIC (E. coli MC 4100; [3]) of 32 µg/mL (≈ 85 µM), an MIC (E. coli Tol C) of 0.5 µg/mL (≈ 1.33 µM) and an MIC (E. faecalis RB1; [4]) of 2 µg/mL (≈ 5.31 µM). The IC50 (E. coli gyrase) was 7000 nM.

In the case of Cc1c(N2CC[C@@H]([C@H](C)N)C2)c(F)cc2c(=O)[nH]c(=O)n(C3CC3)c12 [Example 4b, 7-[(R)-3-((S)-1-Aminoethyl)pyrrolidin-1-yl]-1-cyclopropyl-6-fluoro-8-methyl-1H-quinazolinedione Hydrochloride], the MIC (S. aureus 2552) is reported as 0.5 µg/mL, the “MIC fold increase S. aureus 2552 (in parentheses)” value (S. aureus 2552) is reported as “(4x)” and the “MIC fold increase S. aureus 2554 (in parentheses)” value (S. aureus 2554) is reported as “(2x)”. For the same compound, the “MIC fold increase N. g. 2693 (in parentheses)” value (N. gonorrhoeae 2693) was “(8x)”, the MIC (E. coli B90; B90, read-out: Minimum Inhibitory Concentrations E. coli B90) was 0.13 µg/mL and the MIC (S. aureus 29213; Staphylococcus aureus, 29213, read-out: Minimum Inhibitory Concentrations S. aureus 29213) was 0.25 µg/mL. The MIC (S. pyogenes C203; C203, read-out: Minimum Inhibitory Concentrations S. pyogenes C203) was 0.015 µg/mL, the MIC (E. coli MC 4100; MC4100, read-out: Minimum Inhibitory Concentrations E. coli MC 4100) was 4 µg/mL and the MIC (E. coli Tol C) was 0.13 µg/mL. For the same compound, the MIC (E. faecalis RB1; RB1, read-out: Minimum Inhibitory Concentrations E. faecalis RB1) was 0.13 µg/mL, the “MIC fold increase S. aureus 2558 (in parentheses)” value (S. aureus 2558) was “(8x)” and the PD50 (S. pyogenes) was 3.6 mg/kg. The MIC (N. gonorrhoeae 2637) was 0.25 µg/mL, the MIC (S. aureus UC-76) was 0.13 µg/mL and the MIC (N. gonorrhoeae 2709) was 2 µg/mL. The “MIC fold increase N. g. 2709 (in parentheses)” value (N. gonorrhoeae 2709) was “(8x)” and the IC50 (E. coli gyrase) was 600 nM.

Reference: US20030114666A1, “Antibacterial agents” (priority 2001, published 2003)
